According to patent publication US20100093776A1, “Organic Compounds and Their Uses” (Novartis AG, priority 2006, published 2010):
pIC50: −log10 of the molar value.

Columns and labels:
CDK2/cyclinA = target: T1, CDK2/cyclinA (Homo sapiens, UniProt P24941); assay: CDK2/cyclinA IMAP fluorescence polarization kinase assay; type: biochemical; details: 4.68 μM ATP, two hours at room temperature
T1 construct: purchased Millipore
Protocol: (§1) Kinase assays were performed on recombinant purified enzymes using the non-radioactive IMAP fluorescence polarization assay format.
(§2) Compound stocks were prepared and diluted in DMSO and were added to kinase reactions at a 1/100 dilution for a final concentration of 1% DMSO. The components were added together to final concentrations listed in the tables below and incubated for two hours at room temperature.
(§3) The reactions were stopped by addition of stop solution.
CDK2: final stop concentration is 1× Developer buffer (100% A), IMAP beads 1/400
(§4) The samples were allowed to incubate for one more hour at room temperature and then the fluorescence polarization was measured. The plate normalized millipolarization (mP) values were plotted against the log of compound concentration for each compound and IC50 values were calculated using the spotfire IC50 calculator and confirmed by visual analysis.

CDK4 = CDK4 (Homo sapiens, UniProt P11802); assay: CDK4 kinase assay (IMAP fluorescence polarization); type: biochemical
Sequence of CDK4 (P11802 whole entry, species assumed): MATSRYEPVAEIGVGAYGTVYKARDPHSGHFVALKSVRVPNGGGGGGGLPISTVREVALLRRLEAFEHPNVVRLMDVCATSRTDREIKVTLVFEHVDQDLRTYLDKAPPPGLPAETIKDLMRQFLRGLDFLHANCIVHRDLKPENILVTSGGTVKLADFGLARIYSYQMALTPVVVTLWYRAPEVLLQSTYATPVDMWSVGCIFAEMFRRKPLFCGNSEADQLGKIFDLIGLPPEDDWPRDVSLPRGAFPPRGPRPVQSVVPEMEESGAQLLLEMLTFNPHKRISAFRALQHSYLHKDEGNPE
Sequence of CDK4 (P24385 whole entry partner, species assumed): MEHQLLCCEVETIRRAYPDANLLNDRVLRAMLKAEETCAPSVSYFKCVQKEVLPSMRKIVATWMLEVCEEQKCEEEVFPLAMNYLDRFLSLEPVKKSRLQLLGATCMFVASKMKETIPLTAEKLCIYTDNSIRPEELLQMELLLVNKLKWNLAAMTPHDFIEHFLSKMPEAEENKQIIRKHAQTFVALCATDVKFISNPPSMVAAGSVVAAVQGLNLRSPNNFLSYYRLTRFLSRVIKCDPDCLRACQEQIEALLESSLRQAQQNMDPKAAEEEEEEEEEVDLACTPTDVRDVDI
Protocol: as §1, §2, §4

CDK5 = CDK5 (Homo sapiens, UniProt Q00535); assay: CDK5 kinase assay (IMAP fluorescence polarization); type: biochemical
Sequence of CDK5 (Q00535 whole entry, species assumed): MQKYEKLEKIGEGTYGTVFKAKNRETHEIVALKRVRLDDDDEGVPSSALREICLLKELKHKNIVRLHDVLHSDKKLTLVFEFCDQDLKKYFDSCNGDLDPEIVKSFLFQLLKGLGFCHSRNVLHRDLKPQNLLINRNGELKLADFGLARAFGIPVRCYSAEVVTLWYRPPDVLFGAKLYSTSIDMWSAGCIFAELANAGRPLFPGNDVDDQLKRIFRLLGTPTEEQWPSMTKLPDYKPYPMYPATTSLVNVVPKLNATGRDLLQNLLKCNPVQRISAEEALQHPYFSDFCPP
Sequence of CDK5 (Q15078 whole entry partner, species assumed): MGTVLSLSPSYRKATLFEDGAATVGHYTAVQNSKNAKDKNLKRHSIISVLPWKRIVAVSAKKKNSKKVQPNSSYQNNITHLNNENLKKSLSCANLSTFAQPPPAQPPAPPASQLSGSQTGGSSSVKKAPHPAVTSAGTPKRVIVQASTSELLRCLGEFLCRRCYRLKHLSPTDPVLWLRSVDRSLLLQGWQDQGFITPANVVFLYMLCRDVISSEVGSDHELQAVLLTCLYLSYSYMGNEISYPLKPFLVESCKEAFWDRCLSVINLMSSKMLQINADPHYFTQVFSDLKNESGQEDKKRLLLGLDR
Protocol: as §1, §2, §4

CDK1/cyclinB = target: T2, CDK1/cyclinB (Homo sapiens, UniProt P06493); assay: CDK1/cyclinB IMAP fluorescence polarization kinase assay; type: biochemical; details: 52 μM ATP, two hours at room temperature
T2 construct: purchased Millipore
T2 sequence (P06493 whole entry): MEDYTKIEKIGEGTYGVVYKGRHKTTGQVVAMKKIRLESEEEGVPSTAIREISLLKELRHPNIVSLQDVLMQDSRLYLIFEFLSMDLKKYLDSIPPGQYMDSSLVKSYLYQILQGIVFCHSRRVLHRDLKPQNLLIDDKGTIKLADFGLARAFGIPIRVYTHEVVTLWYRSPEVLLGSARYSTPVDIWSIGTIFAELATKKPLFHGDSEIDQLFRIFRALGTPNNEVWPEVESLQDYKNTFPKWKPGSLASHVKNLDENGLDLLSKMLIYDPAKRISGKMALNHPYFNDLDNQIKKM
T2 sequence (P14635 whole entry partner): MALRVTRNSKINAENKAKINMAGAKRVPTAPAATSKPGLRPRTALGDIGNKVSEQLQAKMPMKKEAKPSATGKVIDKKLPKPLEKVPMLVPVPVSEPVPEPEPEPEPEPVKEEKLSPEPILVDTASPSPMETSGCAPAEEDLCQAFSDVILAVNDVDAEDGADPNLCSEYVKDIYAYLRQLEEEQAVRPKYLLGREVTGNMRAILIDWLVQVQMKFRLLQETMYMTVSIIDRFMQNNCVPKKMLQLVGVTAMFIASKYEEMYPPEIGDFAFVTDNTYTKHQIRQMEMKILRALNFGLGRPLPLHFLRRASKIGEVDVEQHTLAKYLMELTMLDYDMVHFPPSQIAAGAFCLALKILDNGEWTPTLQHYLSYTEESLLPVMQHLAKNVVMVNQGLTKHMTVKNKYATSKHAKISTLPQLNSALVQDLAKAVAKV
Protocol: as §1, §2, §3
(§5) CDK9/CDK1/CDK7: final stop concentration is 1× Developer buffer (85% A/15% B), IMAP beads 1/400
as §4

CDK9/cyclinT1 = target: T3, CDK9/cyclinT1 (Homo sapiens, UniProt P50750); assay: CDK9/cyclinT1 IMAP fluorescence polarization kinase assay; type: biochemical; details: 6 μM ATP, two hours at room temperature
T3 construct: purchased Millipore
T3 sequence (P50750 whole entry): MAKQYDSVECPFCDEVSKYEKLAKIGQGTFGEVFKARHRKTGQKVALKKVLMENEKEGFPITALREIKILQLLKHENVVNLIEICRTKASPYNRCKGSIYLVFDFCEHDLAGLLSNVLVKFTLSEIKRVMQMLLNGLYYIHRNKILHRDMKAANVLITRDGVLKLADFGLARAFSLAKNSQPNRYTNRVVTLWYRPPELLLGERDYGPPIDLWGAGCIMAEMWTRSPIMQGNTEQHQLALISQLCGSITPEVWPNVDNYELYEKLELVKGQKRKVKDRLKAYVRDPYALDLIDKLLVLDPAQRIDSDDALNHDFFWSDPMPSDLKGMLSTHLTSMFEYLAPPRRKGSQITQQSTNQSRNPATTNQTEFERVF
T3 sequence (O60563 whole entry partner): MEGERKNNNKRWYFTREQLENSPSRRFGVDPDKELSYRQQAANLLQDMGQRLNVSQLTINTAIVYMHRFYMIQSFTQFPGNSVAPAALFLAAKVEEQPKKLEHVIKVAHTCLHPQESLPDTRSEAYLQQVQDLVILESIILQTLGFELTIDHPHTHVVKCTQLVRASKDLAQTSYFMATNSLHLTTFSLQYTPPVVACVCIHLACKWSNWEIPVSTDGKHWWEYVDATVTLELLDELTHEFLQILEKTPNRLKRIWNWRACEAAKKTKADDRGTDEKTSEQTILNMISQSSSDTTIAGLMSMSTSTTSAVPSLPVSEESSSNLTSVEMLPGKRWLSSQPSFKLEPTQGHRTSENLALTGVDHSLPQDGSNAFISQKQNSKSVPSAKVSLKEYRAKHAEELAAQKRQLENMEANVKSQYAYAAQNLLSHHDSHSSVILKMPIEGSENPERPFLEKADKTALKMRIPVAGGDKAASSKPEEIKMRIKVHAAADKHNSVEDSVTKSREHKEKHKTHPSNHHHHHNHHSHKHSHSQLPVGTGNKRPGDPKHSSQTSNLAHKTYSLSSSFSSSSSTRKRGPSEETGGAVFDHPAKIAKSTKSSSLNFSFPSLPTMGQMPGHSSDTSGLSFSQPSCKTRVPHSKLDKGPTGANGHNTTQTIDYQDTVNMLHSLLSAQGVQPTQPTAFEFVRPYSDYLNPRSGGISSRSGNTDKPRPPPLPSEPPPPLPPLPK
Protocol: as §1, §2, §3, §5, §4

[1] = tested on: RNA polymerase II CTD serine2 phosphorylation in Hep3B cells; assay: H5 (Ser2) Ab High Content Screen: RNA polymerase II CTD serine2 phosphorylation Assay; type: cell-based; details: Homo sapiens, compounds for 2 hours, H5 antibody nuclear staining
Protocol: H5 (also referred as Ser2) Ab High Content Screen: RNA polymerase II CTD serine2 phosphorylation Assay
1. Cells are plated into 384 well plates: 30 μl of Hep3B cells (4,000 cells/30 μl) in DMEM with 3% FBS are plated into wells of a tissue culture treated clear bottomed 384 well plate. Cells are allowed to adhere during an overnight incubation.
2. Cells are treated with compounds for two hours: 10 μl of DMEM with 3% FBS is added to each well with a final concentration of DMSO equal to 1%. Cells are incubated with compounds for 2 hours.
3. Cells are fixed and permeabilized. Cells are washed with 30 mM HEPES pH=7.3 then fixed in 4% paraformaldehyde in 30 mM HEPES pH=7.3 for one hour at room temperature. The fix is removed by washing the cells with Tris buffered saline (TBS) and the cells are permeabilized by incubation in TBS with 0.5% triton X-100 for 30 minutes at room temperature. Triton is removed by washing the cells with TBS.
4. Cells are stained with H5 monoclonal antibody and nuclei are stained with Hoechst dye 33342: Block cells by incubating in TBS with 1% Bovine serum albumin (BSA) for one hour at room temperature. Incubate primary H5 Ab (1/250) overnight at 4 degrees in PBS with 1% BSA and 0.1% Tween-20. The next day wash cells with TBS. Add secondary antibody, anti-IgM labeled with cy5 (1/450), and Hoecsht dye 33342 (10 μg/ml) in TBS with 1% BSA and incubate one hour at room temperature. Wash cells with PBS.
5. Measure staining using the In-cell Analyzer system from GE Healthcare. Nuclei were located using the Hoecsht 33342 dye signal and H5 Antibody staining was quantified by measuring cy5 label. Nuclear intensity of H5 staining was plotted against the log of compound concentration for each compound and IC-50 values were calculated using the spotfire IC-50 calculator and confirmed by visual analysis.

CDK7/cyclinH/MAT1 = target: T4, CDK7/cyclinH/MAT1 (Homo sapiens, UniProt P50613); assay: CDK7/cyclinH/Mat1 IMAP fluorescence polarization kinase assay; type: biochemical; details: 8.09 μM ATP, two hours at room temperature
T4 construct: purchased Millipore
T4 sequence (P50613 whole entry): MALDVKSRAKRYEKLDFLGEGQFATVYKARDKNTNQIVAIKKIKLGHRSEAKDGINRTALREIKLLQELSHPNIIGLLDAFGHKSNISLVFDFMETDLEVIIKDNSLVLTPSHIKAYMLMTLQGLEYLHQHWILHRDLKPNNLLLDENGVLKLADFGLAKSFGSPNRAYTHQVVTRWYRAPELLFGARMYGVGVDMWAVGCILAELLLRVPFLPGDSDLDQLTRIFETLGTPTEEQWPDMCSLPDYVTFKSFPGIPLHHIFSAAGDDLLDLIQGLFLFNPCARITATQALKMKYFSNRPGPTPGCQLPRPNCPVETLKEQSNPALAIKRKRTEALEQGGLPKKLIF
T4 sequence (P51946 whole entry partner): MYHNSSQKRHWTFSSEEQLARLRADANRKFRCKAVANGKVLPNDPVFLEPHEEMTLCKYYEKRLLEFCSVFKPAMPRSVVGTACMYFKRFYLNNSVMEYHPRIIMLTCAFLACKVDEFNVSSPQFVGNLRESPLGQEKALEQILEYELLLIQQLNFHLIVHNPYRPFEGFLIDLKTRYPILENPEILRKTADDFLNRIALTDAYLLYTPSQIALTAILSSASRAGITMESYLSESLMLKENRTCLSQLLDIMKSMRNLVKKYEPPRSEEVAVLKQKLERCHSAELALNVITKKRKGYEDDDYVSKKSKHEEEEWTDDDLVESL
T4 sequence (P51948 whole entry partner): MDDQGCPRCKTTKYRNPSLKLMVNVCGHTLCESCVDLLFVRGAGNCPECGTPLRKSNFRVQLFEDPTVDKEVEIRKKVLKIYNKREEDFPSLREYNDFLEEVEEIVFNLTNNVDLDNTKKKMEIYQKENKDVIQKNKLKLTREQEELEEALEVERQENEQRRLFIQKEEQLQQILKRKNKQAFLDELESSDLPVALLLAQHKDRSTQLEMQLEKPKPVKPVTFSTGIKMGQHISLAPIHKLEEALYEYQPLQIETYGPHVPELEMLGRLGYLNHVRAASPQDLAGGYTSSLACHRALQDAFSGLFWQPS
Protocol: as §1, §2, §3, §5, §4

neointima formation = details: rats; cited from earlier work

pIC50 (CDK2/cyclinA) | pIC50 (CDK4) | pIC50 (CDK5) | pIC50 (CDK1/cyclinB) | pIC50 (CDK9/cyclinT1) | pIC50 [1] | pIC50 (CDK7/cyclinH/MAT1) | SMILES | inhibition of neointima formation (neointima formation)
> 5.30 | > 5.30 | > 5.30 | > 5.30 | > 5.30 | – | – | Cc1cnc(Nc2cccc(S(N)(=O)=O)c2)nc1-c1cccc2[nH]ccc12 [Compound 32, 3-[4-(1H-Indol-4-yl)-5-methyl-pyrimidin-2-ylamino]-benzenesulfonamide] | –
– | 4.82 to 5.30 | > 5.30 | > 5.30 | > 5.30 | > 5.30 | < 4.30 | Clc1cccc(Nc2nccc(-c3cccc4[nH]ccc34)n2)c1 [Compound 1, (3-Chloro-phenyl)-[4-(1H-indol-4-yl)-pyrimidin-2-yl]-amine] | –
> 5.30 | 4.82 to 5.30 | > 5.30 | > 5.30 | > 5.30 | > 5.30 | > 5.30 | Cc1cnc(Nc2cccc(S(C)(=O)=O)c2)nc1-c1cccc2[nH]ccc12 [Compound 31, [4-(1H-Indol-4-yl)-5-methyl-pyrimidin-2-yl]-(3-methanesulfonyl-phenyl)-amine] | –
> 5.30 | > 5.30 | > 5.30 | > 5.30 | > 5.30 | > 5.30 | > 5.30 | CS(=O)(=O)c1cccc(Nc2nccc(-c3cccc4[nH]ccc34)n2)c1 [Compound 2, [4-(1H-Indol-4-yl)-pyrimidin-2-yl]-(3-methanesulfonyl-phenyl)-amine] | –
– | – | – | < 4.30 | > 5.30 | > 5.30 | < 4.30 | CCNC(=O)Cn1ccc2c(-c3ccnc(Nc4cccc(Cl)c4)n3)cccc21 [Compound 13, 2-{4-[2-(3-Chloro-phenylamino)-pyrimidin-4-yl]-indol-1-yl}-N-ethyl-acetamide] | –
– | – | – | – | – | – | – | COc1ccc(CNc2nc(N(CCO)CCO)nc3c2ncn3C(C)C)cc1 [CVT-313] | greater than 80%
> 5.30 | 4.82 to 5.30 | > 5.30 | > 5.30 | > 5.30 | – | – | Cc1ccc2[nH]ccc2c1-c1ccnc(Nc2cccc(S(C)(=O)=O)c2)n1 [Compound 35, (3-Methanesulfonyl-phenyl)-[4-(5-methyl-1H-indol-4-yl)-pyrimidin-2-yl]-amine] | –
4.82 to 5.30 | – | – | < 4.30 | > 5.30 | 4.30 to 4.82 | – | Clc1cccc(Nc2nccc(-c3cccc4c3ccn4CCN3CCOCC3)n2)c1 [Compound 9, (3-Chloro-phenyl)-{4-[1-(2-morpholin-4-yl-ethyl)-1H-indol-4-yl]-pyrimidin-2-yl}-amine] | –
